Source: PubChem BioAssay AID1963971 (Molecular Pharmacology Branch, DTP, NCI, 2024)

Tested on: 953936-095-R-J2-PDC spheroids with HUVEC/MSC, viability
Test: Anticancer human tumor 953936-095-R-J2-PDC patient-derived cervical squamous cell carcinoma cell line growth inhibition [PI3K]
Conditions: for IC50: curve of first compound; for viability, T/C: stronger effect = lower value
Description: Combinatorial screen of targeted agents with the PI3K inhibitors inavolisib, alpelisib, duvelisib, and copanlisib in multi-cell type tumor spheroids
A high-throughput screen of multi-cell type tumor spheroids was designed to identify active combinations of targeted small molecules and PI3K pathway inhibitors. Complex spheroids include a stromal component modeled by human endothelial cells (HUVEC) and fibroblasts modeled by human mesenchymal stem cells (MSCs). The concentration ranges selected for each drug and investigational agent were based upon clinically achievable concentrations if the clinical Cmax of the agent was known.
Compounds. The drugs and investigational agents: inavolisib (NSC800729), alpelisib (NSC765974), duvelisib (NSC772469), copanlisib (NSC816437), ipatasertib (NSC767898), afuresertib (NSC778305), talazoparib (NSC767125), sapanisertib (NSC764658), selumetinib (NSC741078), tovorafenib (DAY101, NSC766906), vemurafenib (NSC761431), ravoxertinib (NSC781343), sotorasib (NSC818433), MRTX1133 (NSC 836407), abemaciclib (NSC 768073), palbociclib (NSC758247), venetoclax (NSC 766270), SY5609 (NSC837396), enzalutamide (NSC755605), and darolutamide (NSC825331), were obtained from the National Cancer Institute (NCI) Developmental Therapeutics Program Chemical Repository. The FDA-approved anticancer drug set is available from the NCI Developmental Therapeutics Program. […] The stock solutions were prepared in dimethyl sulfoxide (DMSO, Sigma-Aldrich, St. Louis, MO, cat. D2650) at 800-fold the tested concentration and stored at -70 degrees C prior to their use. All drugs and investigational agents were tested over a range starting from a high concentration at or near the clinical Cmax and decreasing in half-log increments. If the clinical Cmax for an agent had not been determined, the highest concentration tested was 10 microM.
Cell Culture. All cells were maintained in an incubator at 37 degrees C and 5% CO2 with 95% humidity. The PDC lines were cultured according to standard operating procedures established by the NCI PDMR (https://pdmr.cancer.gov/sops/default.htm). All PDCs were thawed and cultured in Matrigel-coated flasks prepared with a working solution of 1X Ham's F-12 nutrient mix, without supplementation (Invitrogen, Waltham, MA, cat. 11765054), 100 U/mL penicillin-streptomycin (Invitrogen, cat. 15140122), and 2.5% Matrigel (Corning Inc., Corning, NY, cat. 354248) for the first three passages. The 354836-022-R-J1-PDC, 475296-252-R-J1-PDC, and 997726-040-R-J2-PDC lines were cultured in 6A media, which includes advanced DMEM/F-12 (Thermo Fisher Scientific, cat. 12634028), 10 mM HEPES (Thermo Fisher Scientific, cat. 15630080), 1X GlutaMAX supplement (Thermo Fisher Scientific, cat. 35050061), 0.1 mg/mL primocin (InvivoGen, San Diego, CA, cat. ant-pm-2), 10% defined fetal bovine serum, heat inactivated (HyClone Laboratories Inc., Logan, UT, cat. SH30070.03HI), 50% L-WRN conditioned media (ATCC, cat. CRL-3276), 1.25 mM N-Acetyl-L-cysteine (Sigma-Aldrich, cat. A9165), 10 mM nicotinamide (Sigma-Aldrich, cat. N0636), 1X B-27 supplement (Thermo Fisher Scientific, cat. 17504044), 1X N-2 supplement (Thermo Fisher Scientific, cat. 17502048), and 10 microM Y-27632 dihydrochloride (Tocris Bioscience, Bristol, United Kingdom, cat. 1254). The 624824-186-R-J2-PDC line was cultured in 6C/Colon 1B media, which includes all 6A media components plus 50 ng/mL human EGF recombinant protein (Thermo Fisher Scientific, cat. PHG0311). […]

[1] = second compound 0.00316 µM, first compound 0.0316 µM
[2] = second compound 0.00316 µM, first compound 0.1 µM
[3] = second compound 0.00316 µM, first compound 0.316 µM
[4] = second compound 0.00316 µM, first compound 1 µM
[5] = second compound 0.01 µM, first compound 0.0316 µM
[6] = second compound 0.01 µM, first compound 0.1 µM
[7] = second compound 0.01 µM, first compound 0.316 µM
[8] = second compound 0.01 µM, first compound 1 µM
[9] = second compound 0.0316 µM, first compound 0.0316 µM
[10] = second compound 0.0316 µM, first compound 0.1 µM
[11] = second compound 0.0316 µM, first compound 0.316 µM
[12] = second compound 0.0316 µM, first compound 1 µM
[13] = second compound 0.1 µM, first compound 0.0316 µM
[14] = second compound 0.1 µM, first compound 0.1 µM
[15] = second compound 0.1 µM, first compound 0.316 µM
[16] = second compound 0.1 µM, first compound 1 µM
[17] = second compound 0.316 µM, first compound 0.0316 µM
[18] = second compound 0.316 µM, first compound 0.1 µM
[19] = second compound 0.316 µM, first compound 0.316 µM
[20] = second compound 0.316 µM, first compound 1 µM
[21] = second compound 1 µM, first compound 0.0316 µM
[22] = second compound 1 µM, first compound 0.1 µM
[23] = second compound 1 µM, first compound 0.316 µM
[24] = second compound 1 µM, first compound 1 µM
[25] = second compound 0.00316 µM, first compound 0.00316 µM
[26] = second compound 0.00316 µM, first compound 0.01 µM
[27] = second compound 0.01 µM, first compound 0.00316 µM
[28] = second compound 0.01 µM, first compound 0.01 µM
[29] = second compound 0.0316 µM, first compound 0.00316 µM
[30] = second compound 0.0316 µM, first compound 0.01 µM
[31] = second compound 0.1 µM, first compound 0.00316 µM
[32] = second compound 0.1 µM, first compound 0.01 µM
[33] = second compound 0.316 µM, first compound 0.00316 µM
[34] = second compound 0.316 µM, first compound 0.01 µM
[35] = second compound 1 µM, first compound 0.00316 µM
[36] = second compound 1 µM, first compound 0.01 µM
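Note: spheroids exposed to compounds for seven days before read-out.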

Compound `CC(C)NCC(C(=O)N1CCN(c2ncnc3c2C(C)CC3O)CC1)c1ccc(Cl)cc1` (stereo unspecified) + CC(Nc1ccc2c(c1)OCCn1cc(N3C(=O)OCC3C(F)F)nc1-2)C(N)=O has an IC50 (second compound 0.00316 µM) of 890 nM, an IC50 (second compound 0.01 µM) of 865 nM and an IC50 (second compound 0.0316 µM) of 640 nM. For the same compound, the IC50 (second compound 0.1 µM) was 176 nM, the IC50 (second compound 0.316 µM) was under 31.6 nM and the IC50 (second compound 1 µM) was under 31.6 nM. The viability, T/C [1] was 89.5%, the viability, T/C [2] was 88.2% and the viability, T/C [3] was 73.9%. The viability, T/C [4] was 48%, the viability, T/C (second compound 0.00316 µM, first compound 3.16 µM) was 22.5% and the viability, T/C (second compound 0.00316 µM, first compound 10 µM) was 15.1%. For the same compound, the viability, T/C [5] was 87%, the viability, T/C [6] was 86.1% and the viability, T/C [7] was 71.3%. For the same compound, the viability, T/C [8] was 48.3%, the viability, T/C (second compound 0.01 µM, first compound 3.16 µM) was 20.9% and the viability, T/C (second compound 0.01 µM, first compound 10 µM) was 14.1%. The viability, T/C [9] was 79.1%, the viability, T/C [10] was 76% and the viability, T/C [11] was 63.5%. For the same compound, the viability, T/C [12] was 42%, the viability, T/C (second compound 0.0316 µM, first compound 3.16 µM) was 18.4% and the viability, T/C (second compound 0.0316 µM, first compound 10 µM) was 11.4%. For the same compound, the viability, T/C [13] was 57.2%, the viability, T/C [14] was 55% and the viability, T/C [15] was 45.5%. The viability, T/C [16] was 31.2%, the viability, T/C (second compound 0.1 µM, first compound 3.16 µM) was 18.6% and the viability, T/C (second compound 0.1 µM, first compound 10 µM) was 9.8%. It also gave a viability, T/C [17] of 35.8%, a viability, T/C [18] of 33.9% and a viability, T/C [19] of 30.6%. It also gave a viability, T/C [20] of 23.6%, a viability, T/C (second compound 0.316 µM, first compound 3.16 µM) of 13% and a viability, T/C (second compound 0.316 µM, first compound 10 µM) of 9.25%. For the same compound, the viability, T/C [21] was 23%, the viability, T/C [22] was 22.3% and the viability, T/C [23] was 19.3%. It also gave a viability, T/C [24] of 15.4%, a viability, T/C (second compound 1 µM, first compound 3.16 µM) of 14% and a viability, T/C (second compound 1 µM, first compound 10 µM) of 7.62%.

Work on `CCN1CCN(Cc2ccc(Nc3ncc(F)c(-c4cc(F)c5nc(C)n(C(C)C)c5c4)n3)nc2)CC1` + CC(Nc1ccc2c(c1)OCCn1cc(N3C(=O)OCC3C(F)F)nc1-2)C(N)=O yielded an IC50 (second compound 0.00316 µM) of over 1000 nM, an IC50 (second compound 0.01 µM) of over 1000 nM and an IC50 (second compound 0.0316 µM) of over 1000 nM. For the same compound, the IC50 (second compound 0.1 µM) was 64.4 nM, the IC50 (second compound 0.316 µM) was under 3.16 nM and the IC50 (second compound 1 µM) was under 3.16 nM. The viability, T/C [25] was 102%, the viability, T/C [26] was 98.5% and the viability, T/C [1] was 94.6%. For the same compound, the viability, T/C [2] was 96.6%, the viability, T/C [3] was 89.8% and the viability, T/C [4] was 80.7%. It also gave a viability, T/C [27] of 93%, a viability, T/C [28] of 104% and a viability, T/C [5] of 94.2%. For the same compound, the viability, T/C [6] was 83.3%, the viability, T/C [7] was 80% and the viability, T/C [8] was 79.3%. The viability, T/C [29] was 73%, the viability, T/C [30] was 79.7% and the viability, T/C [9] was 72.5%. For the same compound, the viability, T/C [10] was 75.8%, the viability, T/C [11] was 63.8% and the viability, T/C [12] was 72.2%. The viability, T/C [31] was 58.4%, the viability, T/C [32] was 53.8% and the viability, T/C [13] was 53.5%. It also gave a viability, T/C [14] of 47.9%, a viability, T/C [15] of 45.8% and a viability, T/C [16] of 48.5%. It also gave a viability, T/C [33] of 34.8%, a viability, T/C [34] of 36% and a viability, T/C [17] of 31.1%. The viability, T/C [18] was 32.3%, the viability, T/C [19] was 27.6% and the viability, T/C [20] was 29.4%. For the same compound, the viability, T/C [35] was 22%, the viability, T/C [36] was 21.5% and the viability, T/C [21] was 22.7%. The viability, T/C [22] was 18.8%, the viability, T/C [23] was 18.4% and the viability, T/C [24] was 24.7%.

`Cn1ncnc1[C@H]1c2n[nH]c(=O)c3cc(F)cc(c23)N[C@@H]1c1ccc(F)cc1` + CC(Nc1ccc2c(c1)OCCn1cc(N3C(=O)OCC3C(F)F)nc1-2)C(N)=O was tested, and the IC50 (second compound 0.00316 µM) was over 100 nM, the IC50 (second compound 0.01 µM) was over 100 nM and the IC50 (second compound 0.0316 µM) was over 100 nM. The IC50 (second compound 0.1 µM) was over 100 nM, the IC50 (second compound 0.316 µM) was under 0.316 nM and the IC50 (second compound 1 µM) was under 0.316 nM. The viability, T/C (second compound 0.00316 µM, first compound 0.000316 µM) was 99.8%, the viability, T/C (second compound 0.00316 µM, first compound 0.001 µM) was 104% and the viability, T/C [25] was 105%. For the same compound, the viability, T/C [26] was 100%, the viability, T/C [1] was 98.9% and the viability, T/C [2] was 91.7%. For the same compound, the viability, T/C (second compound 0.01 µM, first compound 0.000316 µM) was 103%, the viability, T/C (second compound 0.01 µM, first compound 0.001 µM) was 106% and the viability, T/C [27] was 88.1%. It also gave a viability, T/C [28] of 94.2%, a viability, T/C [5] of 95% and a viability, T/C [6] of 86.2%. For the same compound, the viability, T/C (second compound 0.0316 µM, first compound 0.000316 µM) was 80%, the viability, T/C (second compound 0.0316 µM, first compound 0.001 µM) was 79% and the viability, T/C [29] was 77.5%. It also gave a viability, T/C [30] of 79.9%, a viability, T/C [9] of 80.2% and a viability, T/C [10] of 74.2%. It also gave a viability, T/C (second compound 0.1 µM, first compound 0.000316 µM) of 58.8%, a viability, T/C (second compound 0.1 µM, first compound 0.001 µM) of 56% and a viability, T/C [31] of 60.4%. The viability, T/C [32] was 57.9%, the viability, T/C [13] was 54.8% and the viability, T/C [14] was 50.8%. The viability, T/C (second compound 0.316 µM, first compound 0.000316 µM) was 34.3%, the viability, T/C (second compound 0.316 µM, first compound 0.001 µM) was 35.9% and the viability, T/C [33] was 35.3%. For the same compound, the viability, T/C [34] was 33.9%, the viability, T/C [17] was 34% and the viability, T/C [18] was 33%. The viability, T/C (second compound 1 µM, first compound 0.000316 µM) was 23.3%, the viability, T/C (second compound 1 µM, first compound 0.001 µM) was 23.3% and the viability, T/C [35] was 22.2%. It also gave a viability, T/C [36] of 23.7%, a viability, T/C [21] of 23% and a viability, T/C [22] of 24.4%.
